The source made the active and inactive calls.
Assays:
[1] = viability of uninfected HEp-2 cells – cell-based, HTS, cytotoxicity control for RSV inhibitor project, dose response (AID 2410); type: functional; conditions: human respiratory syncytial virus
Caspase-3 = target: T1, Caspase-3 (Homo sapiens, UniProt P42574); type: functional;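 note: Dose-response selectivity test against caspase-3 for candidate inhibitors of sentrin-specific proteases (SENPs)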
T1 sequence (P42574 whole entry): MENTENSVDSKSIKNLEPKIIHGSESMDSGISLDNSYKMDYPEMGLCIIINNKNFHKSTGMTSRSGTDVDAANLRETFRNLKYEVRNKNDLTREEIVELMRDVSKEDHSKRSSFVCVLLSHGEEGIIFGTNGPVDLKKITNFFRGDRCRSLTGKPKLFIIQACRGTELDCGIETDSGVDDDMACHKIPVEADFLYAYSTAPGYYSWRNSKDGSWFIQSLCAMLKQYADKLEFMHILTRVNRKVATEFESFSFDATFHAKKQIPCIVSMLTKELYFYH

[2] = target: T2, Sentrin-specific protease 7 (Homo sapiens, UniProt Q9BQF6); type: functional;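 note: Luminescence-based dose-response confirmation of ultra-high-throughput screening hits, measuring inhibition of SENP7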
T2 sequence (Q9BQF6 whole entry): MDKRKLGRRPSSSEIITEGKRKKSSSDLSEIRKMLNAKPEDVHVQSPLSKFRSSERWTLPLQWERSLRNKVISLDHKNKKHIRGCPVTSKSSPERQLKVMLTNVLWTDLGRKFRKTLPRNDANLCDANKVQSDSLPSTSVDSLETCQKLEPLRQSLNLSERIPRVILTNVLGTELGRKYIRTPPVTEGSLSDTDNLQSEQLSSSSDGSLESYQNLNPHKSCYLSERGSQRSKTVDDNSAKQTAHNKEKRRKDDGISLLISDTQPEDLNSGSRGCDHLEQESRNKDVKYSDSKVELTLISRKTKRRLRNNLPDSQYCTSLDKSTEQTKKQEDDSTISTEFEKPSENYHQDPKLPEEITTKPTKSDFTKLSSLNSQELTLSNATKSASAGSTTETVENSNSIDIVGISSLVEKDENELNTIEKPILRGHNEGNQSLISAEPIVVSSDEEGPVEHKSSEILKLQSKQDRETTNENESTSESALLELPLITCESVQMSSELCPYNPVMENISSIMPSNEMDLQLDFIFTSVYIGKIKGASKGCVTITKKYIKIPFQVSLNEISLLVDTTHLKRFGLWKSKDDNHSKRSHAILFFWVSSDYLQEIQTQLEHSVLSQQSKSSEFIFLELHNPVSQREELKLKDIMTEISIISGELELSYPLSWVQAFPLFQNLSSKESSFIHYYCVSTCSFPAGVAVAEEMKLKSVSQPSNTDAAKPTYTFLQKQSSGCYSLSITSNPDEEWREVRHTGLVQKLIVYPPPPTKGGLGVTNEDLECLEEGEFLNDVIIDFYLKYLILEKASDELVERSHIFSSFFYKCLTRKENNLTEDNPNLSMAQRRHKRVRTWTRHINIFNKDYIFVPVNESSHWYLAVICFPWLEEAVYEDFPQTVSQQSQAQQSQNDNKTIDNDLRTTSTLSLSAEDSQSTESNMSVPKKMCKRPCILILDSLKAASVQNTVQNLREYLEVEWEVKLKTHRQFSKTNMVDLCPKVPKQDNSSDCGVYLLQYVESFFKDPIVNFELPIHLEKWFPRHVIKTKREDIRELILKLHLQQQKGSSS

[3] = target: T3, Sentrin-specific protease 6 (Homo sapiens, UniProt Q9GZR1); type: functional;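 note: Luminescence-based dose-response confirmatory assay of SENP6 inhibition, following up an ultra-high-throughput screen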
T3 sequence (Q9GZR1 whole entry): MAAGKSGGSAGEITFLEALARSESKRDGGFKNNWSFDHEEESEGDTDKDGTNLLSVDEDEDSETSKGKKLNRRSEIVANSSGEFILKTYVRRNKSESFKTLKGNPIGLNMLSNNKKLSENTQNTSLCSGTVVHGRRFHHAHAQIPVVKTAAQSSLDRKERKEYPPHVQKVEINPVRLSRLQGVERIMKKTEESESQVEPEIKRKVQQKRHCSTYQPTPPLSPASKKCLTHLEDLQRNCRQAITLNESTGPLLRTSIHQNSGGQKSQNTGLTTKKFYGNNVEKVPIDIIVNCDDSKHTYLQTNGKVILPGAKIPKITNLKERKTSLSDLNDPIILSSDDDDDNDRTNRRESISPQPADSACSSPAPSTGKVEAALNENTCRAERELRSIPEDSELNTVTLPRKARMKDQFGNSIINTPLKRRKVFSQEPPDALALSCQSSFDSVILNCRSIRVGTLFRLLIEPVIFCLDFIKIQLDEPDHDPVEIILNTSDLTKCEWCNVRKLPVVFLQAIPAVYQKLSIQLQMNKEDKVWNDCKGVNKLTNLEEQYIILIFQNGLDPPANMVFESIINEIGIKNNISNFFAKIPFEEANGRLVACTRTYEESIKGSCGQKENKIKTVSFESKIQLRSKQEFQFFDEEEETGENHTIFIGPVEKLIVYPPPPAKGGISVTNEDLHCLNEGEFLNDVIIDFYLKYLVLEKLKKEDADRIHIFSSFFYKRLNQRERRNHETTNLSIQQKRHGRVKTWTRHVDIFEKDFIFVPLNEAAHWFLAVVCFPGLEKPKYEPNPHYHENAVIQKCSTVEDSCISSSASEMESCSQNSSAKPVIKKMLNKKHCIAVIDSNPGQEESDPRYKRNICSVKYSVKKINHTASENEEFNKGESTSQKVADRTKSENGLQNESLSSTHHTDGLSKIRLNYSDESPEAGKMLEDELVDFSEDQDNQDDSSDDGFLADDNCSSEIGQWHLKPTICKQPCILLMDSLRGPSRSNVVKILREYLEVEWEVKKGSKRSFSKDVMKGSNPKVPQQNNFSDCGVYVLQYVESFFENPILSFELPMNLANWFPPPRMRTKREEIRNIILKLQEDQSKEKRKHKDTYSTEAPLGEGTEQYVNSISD

[4] = target: T4, Sentrin-specific protease 8 (Homo sapiens, UniProt Q96LD8); type: functional;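 note: luminescence read-out of SENP8 inhibition, dose-response confirmation following an ultra-high-throughput screen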
T4 sequence (Q96LD8 whole entry): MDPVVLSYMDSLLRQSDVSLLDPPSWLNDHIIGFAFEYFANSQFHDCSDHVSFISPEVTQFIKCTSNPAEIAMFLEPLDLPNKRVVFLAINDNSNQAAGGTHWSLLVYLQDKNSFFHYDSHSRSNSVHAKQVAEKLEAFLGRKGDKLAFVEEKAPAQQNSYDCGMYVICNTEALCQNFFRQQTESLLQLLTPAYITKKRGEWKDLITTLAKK

INS1 = test: INS-1E survival protection against cytokine death – cell-based, luminescence, retest, dose response (AID 449756); type: functional; conditions: Rattus norvegicus;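 note: cell death triggered by IL-1 beta plus TNF-alpha plus IFN-gamma mixture; protective hits raise ATP signal compared with cytokine alone wells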
[5] = target: Glyceraldehyde-3-phosphate dehydrogenase (Homo sapiens, UniProt P04406)
Glyceraldehyde-3-phosphate dehydrogenase, sequence (P04406 whole entry): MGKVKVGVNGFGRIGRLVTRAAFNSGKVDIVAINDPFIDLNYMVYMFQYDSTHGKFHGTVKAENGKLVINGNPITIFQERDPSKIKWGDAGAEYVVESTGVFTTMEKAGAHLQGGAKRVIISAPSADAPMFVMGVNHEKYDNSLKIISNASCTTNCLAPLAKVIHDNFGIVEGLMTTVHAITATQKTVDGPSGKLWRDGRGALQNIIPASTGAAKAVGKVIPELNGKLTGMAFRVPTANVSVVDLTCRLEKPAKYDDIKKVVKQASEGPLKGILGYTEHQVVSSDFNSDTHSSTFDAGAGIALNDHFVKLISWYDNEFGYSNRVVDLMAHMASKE

[6] = target: T5, Corticotropin-releasing factor receptor 2/Corticotropin-releasing factor-binding protein (Homo sapiens, UniProt P24387+Q13324); test: activators of CRF receptor 2 with binding protein – uHTS hits, confirmation (AID 602473); type: functional; conditions: read-out: EC50_Mean
T5 sequence (Q13324 whole entry): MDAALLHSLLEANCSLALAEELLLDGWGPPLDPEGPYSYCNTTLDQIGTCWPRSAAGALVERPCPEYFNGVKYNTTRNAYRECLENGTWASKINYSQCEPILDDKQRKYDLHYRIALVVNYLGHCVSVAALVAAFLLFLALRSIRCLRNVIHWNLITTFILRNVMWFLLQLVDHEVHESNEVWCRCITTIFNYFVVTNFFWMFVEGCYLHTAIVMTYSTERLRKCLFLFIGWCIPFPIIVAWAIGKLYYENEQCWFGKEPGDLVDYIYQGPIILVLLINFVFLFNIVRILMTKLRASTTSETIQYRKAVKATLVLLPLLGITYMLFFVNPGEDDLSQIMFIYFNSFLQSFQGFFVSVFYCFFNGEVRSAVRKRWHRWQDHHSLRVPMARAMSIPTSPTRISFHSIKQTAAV
T5 sequence (P24387 whole entry): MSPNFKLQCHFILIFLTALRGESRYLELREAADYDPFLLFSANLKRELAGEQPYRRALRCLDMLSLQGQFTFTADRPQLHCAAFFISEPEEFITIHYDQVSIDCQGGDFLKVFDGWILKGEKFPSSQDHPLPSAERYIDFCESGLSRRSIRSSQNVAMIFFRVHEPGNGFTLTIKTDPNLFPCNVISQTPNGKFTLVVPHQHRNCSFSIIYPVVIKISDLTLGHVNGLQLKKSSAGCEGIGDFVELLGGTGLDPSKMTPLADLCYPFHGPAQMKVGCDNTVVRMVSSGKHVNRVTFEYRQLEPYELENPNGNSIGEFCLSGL

[7] = target: T6, Short transient receptor potential channel 4 (Mus musculus, UniProt Q9QUQ5); test: calcium entry via TRPC4 opening agents – cell-based, HEK293 TRPC4/mu-opioid, Fluo-4 calcium, dose response (AID 434937); type: functional
T6 sequence (Q9QUQ5 whole entry): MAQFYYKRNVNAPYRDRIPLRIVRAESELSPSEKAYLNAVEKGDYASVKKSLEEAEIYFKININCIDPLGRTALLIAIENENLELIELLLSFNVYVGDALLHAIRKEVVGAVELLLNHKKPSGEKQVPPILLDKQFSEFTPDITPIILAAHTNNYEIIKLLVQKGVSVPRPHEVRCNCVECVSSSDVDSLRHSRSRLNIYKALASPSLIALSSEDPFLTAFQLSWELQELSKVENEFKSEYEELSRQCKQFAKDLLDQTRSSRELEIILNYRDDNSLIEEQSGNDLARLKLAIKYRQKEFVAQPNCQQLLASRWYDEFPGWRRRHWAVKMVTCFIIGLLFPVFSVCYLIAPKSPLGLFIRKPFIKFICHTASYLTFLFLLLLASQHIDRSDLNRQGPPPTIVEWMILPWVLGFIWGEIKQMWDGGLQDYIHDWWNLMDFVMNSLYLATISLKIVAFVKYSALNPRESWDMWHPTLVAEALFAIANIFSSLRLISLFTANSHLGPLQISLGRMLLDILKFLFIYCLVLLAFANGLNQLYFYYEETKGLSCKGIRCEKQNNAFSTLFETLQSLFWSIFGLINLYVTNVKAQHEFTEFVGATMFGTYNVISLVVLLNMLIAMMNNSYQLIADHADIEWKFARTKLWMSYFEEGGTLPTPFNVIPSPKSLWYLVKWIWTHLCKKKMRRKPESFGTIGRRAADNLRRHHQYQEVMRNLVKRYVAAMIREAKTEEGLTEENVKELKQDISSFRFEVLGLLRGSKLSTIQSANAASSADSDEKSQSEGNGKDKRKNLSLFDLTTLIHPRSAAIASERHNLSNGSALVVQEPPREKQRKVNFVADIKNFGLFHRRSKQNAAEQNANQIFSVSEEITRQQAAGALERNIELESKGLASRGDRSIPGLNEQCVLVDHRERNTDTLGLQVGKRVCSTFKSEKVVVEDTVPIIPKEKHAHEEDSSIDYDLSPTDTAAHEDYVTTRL

Vero = test: cells; type: functional; conditions: Chlorocebus sabaeus
[8] = target: T7, High affinity choline transporter 1 (Homo sapiens, UniProt Q9GZV3); test: human choline transporter blockers, potency – cell-based, 5-point CRC, membrane potential dye, dose response (AID 504840); type: functional
T7 sequence (Q9GZV3 whole entry): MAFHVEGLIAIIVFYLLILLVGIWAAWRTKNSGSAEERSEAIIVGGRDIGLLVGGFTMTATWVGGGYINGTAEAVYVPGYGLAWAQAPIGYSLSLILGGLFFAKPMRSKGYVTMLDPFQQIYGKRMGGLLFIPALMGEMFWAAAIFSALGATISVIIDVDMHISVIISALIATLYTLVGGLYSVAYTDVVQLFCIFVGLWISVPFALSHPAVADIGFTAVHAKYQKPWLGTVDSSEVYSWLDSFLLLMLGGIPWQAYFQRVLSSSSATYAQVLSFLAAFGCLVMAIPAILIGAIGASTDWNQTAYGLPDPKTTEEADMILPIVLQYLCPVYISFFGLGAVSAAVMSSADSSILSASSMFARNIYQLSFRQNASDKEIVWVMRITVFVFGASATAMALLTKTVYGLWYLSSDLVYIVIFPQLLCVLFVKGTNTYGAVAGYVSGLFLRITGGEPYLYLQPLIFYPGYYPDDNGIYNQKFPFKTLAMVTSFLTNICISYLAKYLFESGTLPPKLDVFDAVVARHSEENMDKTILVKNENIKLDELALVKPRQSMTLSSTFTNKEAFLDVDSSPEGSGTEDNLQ

[9] = target: Induced myeloid leukemia cell differentiation protein Mcl-1 (Homo sapiens, UniProt Q07820); type: functional
Induced myeloid leukemia cell differentiation protein Mcl-1, sequence (Q07820 whole entry): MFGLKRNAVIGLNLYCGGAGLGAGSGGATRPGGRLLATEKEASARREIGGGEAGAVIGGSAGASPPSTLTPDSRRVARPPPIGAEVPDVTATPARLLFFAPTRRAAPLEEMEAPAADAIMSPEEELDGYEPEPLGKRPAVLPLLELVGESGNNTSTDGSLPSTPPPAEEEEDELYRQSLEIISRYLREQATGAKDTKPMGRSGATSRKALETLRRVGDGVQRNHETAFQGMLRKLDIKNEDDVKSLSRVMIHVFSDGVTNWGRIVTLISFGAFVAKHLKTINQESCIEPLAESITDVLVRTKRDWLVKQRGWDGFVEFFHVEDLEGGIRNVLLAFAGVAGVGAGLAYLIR

| SMILES | IC50 (Caspase-3) | IC50 [2] | IC50 [3] | IC50 [4] | also measured |
| --- | --- | --- | --- | --- | --- |
| C=CCn1c2ccccc2c(=O)c2cc(C#Cc3ccccn3)ccc21 | 17.5 µM (active) | 5.93 µM (active) | 14.1 µM (active) | 20.8 µM (active) | CC50 [1]: 25.1 µM (active) |
| O=C(Nc1ccc(-c2noc(-c3cccs3)n2)cc1)c1cccnc1 | 54.8 µM (active) | 7.2 µM (active) | 76.2 µM (active) | > 100 µM (inactive) | AC50 (INS1): 6.36 µM (active) |
| CCN1CCN(C2=C(Cl)C(=O)N(c3ccc(C(F)(F)F)cc3)C2=O)CC1 | – | – | – | – | IC50 [5]: > 50 µM (inconclusive) |
| Cn1c2ccccc2c(=O)c2c(=O)n(C3CCCCCC3)c(C3CCCCC3)nc21 | – | – | – | – | EC50 [6]: 4.04 µM (active) |
| COc1ccc(NC(=O)c2csc3c2CCCC3)cc1 | 19.2 µM (active) | 7.25 µM (active) | > 100 µM (inactive) | > 100 µM (inactive) | – |
| COc1cc(OC)cc(C(=O)N[C@H](C(=O)OCC(=O)NC(C)c2ccccc2)C(C)C)c1 (stereo not given in full) | – | – | – | – | EC50 [7]: 6.68 µM (active); EC50 [6]: 16.4 µM (active) |
| CSc1ccc(/C=C/C(=O)c2ccc(O)cc2)cc1 | 19.9 µM (active) | 4.77 µM (active) | 9.4 µM (active) | 13.4 µM (active) | CC50 (Vero): 23.8 µM (active) |
| Cn1c(=O)[nH]c2nnc(-c3ccc(Cl)c(Cl)c3)nc2c1=O | – | – | – | – | IC50 [8]: 11.2 µM (active) |
| O=C(NCCCN1CCOCC1)c1ccc(Cl)c(S(=O)(=O)N2CCCCCC2)c1 | – | – | – | – | IC50 [8]: 12.3 µM (active) |
| O=c1c2ccccc2nc(-c2ccco2)n1-c1cccnc1 | – | – | – | – | IC50 [9]: < 0.4 µM (not active) |
| CCO/C=C1\C(=O)N(c2ccccc2)C(=O)c2ccccc21 | 6.63 µM (active) | 36.9 µM (active) | 16.6 µM (active) | 50.7 µM (active) | – |
